Molecular target: T1, HCMV polymerase (Human cytomegalovirus, UniProt P08546)
T1 construct: made in house; host or cells: SF-9 insect cells infected with recombinant baculovirus
Assay: HCMV polymerase assay (scintillation proximity assay)
Assay type: biochemical
Settings: percentage of inhibition at 25 μM concentration in CMV polymerase assay
Summary of the method: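 Baculovirus/SF-9-expressed HCMV polymerase in 5.4 mM HEPES pH 7.5, 11.7 mM KCl, 4.5 mM MgCl2, 0.36 mg/ml BSA, 90 nM 3H-dTTP, with or without 2 mM CHAPS. Started with 6 nM biotinylated poly(dA)-oligo(dT), 30 min at 25 or 37 °C, EDTA-stopped, read by streptavidin-SPA counting; % inhibition at 25 μM.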

T1 sequence (P08546 whole entry): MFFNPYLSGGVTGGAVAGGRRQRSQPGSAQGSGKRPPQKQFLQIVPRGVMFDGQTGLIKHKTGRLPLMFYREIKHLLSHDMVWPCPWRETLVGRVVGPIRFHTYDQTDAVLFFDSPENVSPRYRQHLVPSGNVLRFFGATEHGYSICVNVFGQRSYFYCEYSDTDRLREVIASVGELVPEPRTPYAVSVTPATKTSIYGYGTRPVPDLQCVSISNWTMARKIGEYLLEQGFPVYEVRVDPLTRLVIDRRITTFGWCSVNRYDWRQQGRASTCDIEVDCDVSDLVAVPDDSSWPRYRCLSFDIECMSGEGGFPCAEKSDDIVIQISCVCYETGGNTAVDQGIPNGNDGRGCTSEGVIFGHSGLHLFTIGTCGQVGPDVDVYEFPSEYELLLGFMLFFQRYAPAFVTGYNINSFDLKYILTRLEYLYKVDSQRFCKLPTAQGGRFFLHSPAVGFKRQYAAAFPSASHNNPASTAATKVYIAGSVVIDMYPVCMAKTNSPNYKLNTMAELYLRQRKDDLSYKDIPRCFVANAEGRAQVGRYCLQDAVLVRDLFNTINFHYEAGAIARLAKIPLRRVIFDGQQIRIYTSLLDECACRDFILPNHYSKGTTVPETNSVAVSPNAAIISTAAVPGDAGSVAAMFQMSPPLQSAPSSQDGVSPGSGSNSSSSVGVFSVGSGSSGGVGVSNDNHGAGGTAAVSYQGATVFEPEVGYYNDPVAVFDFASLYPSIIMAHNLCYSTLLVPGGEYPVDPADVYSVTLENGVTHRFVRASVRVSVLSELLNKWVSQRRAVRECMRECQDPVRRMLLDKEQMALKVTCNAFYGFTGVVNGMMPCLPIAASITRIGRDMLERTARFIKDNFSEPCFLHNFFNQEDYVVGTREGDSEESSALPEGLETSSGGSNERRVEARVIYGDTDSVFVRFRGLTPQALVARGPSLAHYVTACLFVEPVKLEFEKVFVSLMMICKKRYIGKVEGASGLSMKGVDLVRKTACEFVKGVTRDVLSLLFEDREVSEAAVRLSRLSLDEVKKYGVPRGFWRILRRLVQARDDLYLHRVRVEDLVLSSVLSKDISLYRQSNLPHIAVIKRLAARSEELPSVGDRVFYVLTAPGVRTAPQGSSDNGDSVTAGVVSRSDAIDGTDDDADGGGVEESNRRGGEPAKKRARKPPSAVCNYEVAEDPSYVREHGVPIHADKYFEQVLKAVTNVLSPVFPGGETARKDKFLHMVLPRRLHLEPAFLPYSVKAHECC

SMILES | inhibition at 25 µM [%] | % Inhib [%]
CC(=O)NCCNc1nnc(NC(=O)c2ccc3c(c2)C(=O)OC3=O)s1 [compound 258, N-(5-{[2-(acetylamino)ethyl]amino}-1,3,4-thiadiazol-2-yl)-1,3-dioxo-1,3-dihydro-2-benzofuran-5-carboxamide] | 39.7 | –
NS(=O)(=O)c1ccc(CCNc2nnc(NC(=O)c3c(Cl)cccc3Cl)s2)cc1 [compound 259, N-(5-{[4-(aminosulfonyl)phenethyl]amino}-1,3,4-thiadiazol-2-yl)-2,6-dichlorobenzamide] | 39.6 | –
O=C(Nc1nnc(NCc2ccncc2)s1)c1ccc(Cl)c(Cl)c1 [compound 263, 3,4-chloro-N-{5-[(4-pyridinylmethyl)amino]-1,3,4-thiadiazol-2-yl}benzamide] | 39.4 | –
O=C(Nc1nnc(NCCNc2ccccc2)s1)c1ccc([N+](=O)[O-])o1 [compound 264, N-{5-[(2-anilinoethyl)amino]-1,3,4-thiadiazol-2-yl}-5-nitro-2-furamide] | 39.2 | –
CC(C)c1cc(C(C)C)c(C(=O)Nc2nnc(NCc3ccncc3)s2)c(C(C)C)c1 [compound 266, 2,4,6-triisopropyl-N-{5-[(4-pyridinylmethyl)amino]-1,3,4-thiadiazol-2-yl}benzamide] | 38.8 | –
NS(=O)(=O)c1ccc(CCNc2nnc(NC(=O)c3cc4ccccc4s3)s2)cc1 [compound 267, N-(5-{[4-(aminosulfonyl)phenethyl]amino}-1,3,4-thiadiazol-2-yl)-1-benzothiophene-2-carboxamide] | 38.7 | –
O=C(/C=C/c1ccccc1Cl)Nc1nnc(NCCc2c[nH]c3ccccc23)s1 [compound 268, (E)-3-(2-chlorophenyl)-N-(5-{[2-(1H-indol-3-yl)ethyl]amino}-1,3,4-thiadiazol-2-yl)-2-propenamide] | 38.7 | –
O=C(Nc1nnc(NCCc2c[nH]c3ccccc23)s1)c1cc2ccccc2s1 [compound 269, N-(5-{[2-(1H-indol-3-yl)ethyl]amino}-1,3,4-thiadiazol-2-yl)-1-benzothiophene-2-carboxamide] | 38.5 | –
O=C(Nc1nnc(NCCc2c[nH]c3ccccc23)s1)c1cccc([N+](=O)[O-])c1 [compound 271, N-(5-{[2-(1H-indol-3-yl)ethyl]amino}-1,3,4-thiadiazol-2-yl)-3-nitrobenzamide] | 38.4 | –
O=C(Nc1nnc(NCCCn2ccnc2)s1)c1ccc(Br)cc1 [compound 272, 4-bromo-N-(5-{[3-(1H-imidazol-1-yl)propyl]amino}-1,3,4-thiadiazol-2-yl)benzamide] | 38.2 | –
O=C(Nc1nnc(NCc2ccc3c(c2)OCO3)s1)c1ccc(Br)cc1 [compound 273, N-{5-[(1,3-benzodioxol-5-ylmethyl)amino]-1,3,4-thiadiazol-2-yl}-4-bromobenzamide] | 38.1 | –
O=C(Nc1nnc(NCCCNC2CCCCC2)s1)c1cc(F)cc(F)c1 [compound 275, N-(5-{[3-(cyclohexylamino)propyl]amino]-1,3,4-thiadiazol-2-yl)-3,5-difluorobenzamide] | 37.9 | –
O=C(Nc1nnc(NCCC(c2ccccc2)c2ccccc2)s1)c1cc2ccccc2s1 [compound 277, N-{5-[(3,3-diphenylpropyl)amino]-1,3,4-thiadiazol-2-yl}-1-benzothiophene-2-carboxamide] | 37.9 | –
O=C(Nc1nnc(NC2CCCCCC2)s1)c1ccc(S(=O)(=O)F)cc1 [compound 278, 4-({[5-(cycloheptylamino)-1,3,4-thiadiazol-2-yl]amino}carbonyl)benzenesulfonyl fluoride] | – | 37.5
COc1ccc(CNc2nnc(NC(=O)c3c(Cl)cccc3Cl)s2)cc1OC [compound 280, 2,6-dichloro-N-{5-[(3,4-dimethoxybenzyl)amino]-1,3,4-thiadiazol-2-yl}benzamide] | 37.3 | –
O=C(Nc1nnc(NCCC(c2ccccc2)c2ccccc2)s1)c1cc(F)cc(F)c1 [compound 281, N-{5-[(3,3-diphenylpropyl)amino]-1,3,4-thiadiazol-2-yl}-3,5-difluorobenzamide] | 37.3 | –
O=C(Nc1nnc(NCCc2c[nH]c3ccccc23)s1)c1ccc(C(F)(F)F)cc1 [compound 284, N-(5-{[2-(1H-indol-3-yl)ethyl]amino}-1,3,4-thiadiazol-2-yl)-4-(trifluoromethyl)benzamide] | 36.7 | –
O=C(Nc1nnc(NCc2ccncc2)s1)c1ccc(I)cc1 [compound 289, 4-iodo-N-{5-[(4-pyridinylmethyl)amino]-1,3,4-thiadiazol-2-yl}benzamide] | 36 | –
O=C(Nc1nnc(NCCNc2ccccc2)s1)c1cccc([N+](=O)[O-])c1 [compound 291, N-{5-[(2-anilinoethyl)amino]-1,3,4-thiadiazol-2-yl}-3-nitrobenzamide] | 35.7 | –
O=C(Nc1nnc(NCCc2c[nH]c3ccccc23)s1)c1ccc(Cl)c(Cl)c1 [compound 295, 3,4-dichloro-N-(5-{[2-(1H-indol-3-yl)ethyl]amino}-1,3,4-thiadiazol-2-yl)benzamide] | 35.4 | –

Continued, in another order:

inhibition at 25 µM [%] | SMILES | % Inhib [%]
39.8 | O=C(Nc1nnc(NC2CCCCCC2)s1)c1cc2ccccc2s1 [compound 256, N-[5-(cycloheptylamino)-1,3,4-thiadiazol-2-yl]-1-benzothiophene-2-carboxamide] | –
39.8 | CCCCCCCCCCCNc1nnc(NC(=O)c2cc3ccccc3s2)s1 [compound 257, N-[5-(undecylamino)-1,3,4-thiadiazol-2-yl]-1-benzothiophene-2-carboxamide] | –
39.6 | CC(C)c1cc(C(C)C)c(C(=O)Nc2nnc(NCCCCc3ccccc3)s2)c(C(C)C)c1 [compound 260, 2,4,6-triisopropyl-N-{5-[(4-phenylbutyl)amino]-1,3,4-thiadiazol-2-yl}benzamide] | –
39.5 | CCOc1ccc2ccccc2c1C(=O)Nc1nnc(NC[C@@H]2CCC3CC2C3(C)C)s1 (stereo partly drawn) [compound 261, N-[5-({[(2R)-6,6-dimethylbicyclo[3.1.1]hept-2-yl]methyl}amino)-1,3,4-thiadiazol-2-yl]-2-ethoxy-1-naphthamide] | –
39.5 | O=C(/C=C/c1ccccc1)Nc1nnc(NCCc2ccccc2)s1 [compound 262, (E)-N-[5-(phenethylamino)-1,3,4-thiadiazol-2-yl]-3-phenyl-2-propenamide] | –
39.1 | CC(C)c1cc(C(C)C)c(C(=O)Nc2nnc(NC3CCN(Cc4ccccc4)CC3)s2)c(C(C)C)c1 [compound 265, N-{5-[(1-benzyl-4-piperidinyl)amino]-1,3,4-thiadiazol-2-yl}-2,4,6-triisopropylbenzamide] | –
38.4 | CCOc1ccc2ccccc2c1C(=O)Nc1nnc(NCCc2ccccc2)s1 [compound 270, 2-ethoxy-N-[5-(phenethylamino)-1,3,4-thiadiazol-2-yl]-1-naphthamide] | –
38.1 | O=C(/C=C/c1ccccc1)Nc1nnc(NC2CCCCCC2)s1 [compound 274, (E)-N-[5-(cycloheptylamino)-1,3,4-thiadiazol-2-yl]-3-phenyl-2-propenamide] | –
37.9 | O=C(/C=C/c1ccccc1Cl)Nc1nnc(NC2CCC2)s1 [compound 276, (E)-3-(2-chlorophenyl)-N-[5-(cyclobutylamino)-1,3,4-thiadiazol-2-yl]-2-propenamide] | –
37.4 | CCCCCCCC/C=C/CCCCCCCC(=O)Nc1nnc(NC2CCc3ccccc32)s1 (stereo not shown) [compound 279, (E)-N-[5-(2,3-dihydro-1H-inden-1-ylamino)-1,3,4-thiadiazol-2-yl]-9-octadecenamide] | –
37.1 | O=C(Nc1nnc(NCCc2ccccc2)s1)c1ccc([N+](=O)[O-])o1 [compound 282, 5-nitro-N-[5-(phenethylamino)-1,3,4-thiadiazol-2-yl]-2-furamide] | –
37 | CCCCC(CC)CNc1nnc(NC(=O)c2c(Cl)cccc2Cl)s1 (stereo not shown) [compound 283, 2,6-dichloro-N-{5-[(2-ethylhexyl)amino]-1,3,4-thiadiazol-2-yl}benzamide] | –
36.7 | CCCCCCCC/C=C/CCCCCCCC(=O)Nc1nnc(NCC2CCCCC2)s1 [compound 285, (E)-N-{5-[(cyclohexylmethyl)amino]-1,3,4-thiadiazol-2-yl}-9-octadecenamide] | –
36.3 | CCCCCCCC/C=C/CCCCCCCC(=O)Nc1nnc(NCC(CC)CCCC)s1 (stereo not shown) [compound 286, (E)-N-{5-[(2-ethylhexyl)amino]-1,3,4-thiadiazol-2-yl}-9-octadecenamide] | –
36.2 | O=C(Nc1nnc(NC2CC2)s1)c1cc2ccccc2s1 [compound 287, N-[5-(cyclopropylamino)-1,3,4-thiadiazol-2-yl]-1-benzothiophene-2-carboxamide] | –
36.2 | O=C(Nc1nnc(NC2CCCCCC2)s1)c1ccc(I)cc1 [compound 288, N-[5-(cycloheptylamino)-1,3,4-thiadiazol-2-yl]-4-iodobenzamide] | –
35.9 | O=C(/C=C/c1ccccc1)Nc1nnc(NC2CCN(Cc3ccccc3)CC2)s1 [compound 290, (E)-N-{5-[(1-benzyl-4-piperidinyl)amino]-1,3,4-thiadiazol-2-yl}-3-phenyl-2-propenamide] | –
35.6 | CCSCCNc1nnc(NC(=O)c2c(Cl)cccc2Cl)s1 [compound 292, 2,6-dichloro-N-(5-{[2-(ethylsulfanyl)ethyl]amino}-1,3,4-thiadiazol-2-yl)benzamide] | –
35.5 | CCOc1ccc2ccccc2c1C(=O)Nc1nnc(NCCC(=O)OC(C)(C)C)s1 [compound 293, tert-butyl 3-[(5-{[(2-ethoxy-1-naphthyl)carbonyl]amino}-1,3,4-thiadiazol-2-yl)amino]propanoate] | –
35.4 | O=C(/C=C/c1ccccc1Cl)Nc1nnc(NCCNc2ccccc2)s1 [compound 294, (E)-N-{5-[(2-anilinoethyl)amino]-1,3,4-thiadiazol-2-yl}-3-(2-chlorophenyl)-2-propenamide] | –

Source: patent US6150385A, “1,3,4-thiadiazoles useful for the treatment of CMV infections” (Pharmacia & Upjohn Company, priority 1999, dated 2000)
